Laboratory results: ChEMBL document CHEMBL3112424, “Discovery and optimization of pyrimidone indoline amide PI3Kβ inhibitors for the treatment of phosphatase and tensin homologue (PTEN)-deficient cancers” (J Med Chem, 2014)
pEC50, pIC50: −log10 of the molar value.

Legend:
Liver microsome = experiment: Metabolic stability in dog liver microsomes; type: ADME, Canis lupus familiaris
[1] = Oral bioavailability in Beagle dog at 10 mg/kg; type: ADME, organism-based, Canis lupus familiaris; settings: in vivo
[2] = Tmax in Beagle dog at 10 mg/kg, po; type: ADME, organism-based, Canis lupus familiaris; parameters: dose 10 mg/kg, route oral; settings: in vivo
[3] = Cmax in Beagle dog at 10 mg/kg, po; type: ADME, organism-based, Canis lupus familiaris; parameters: dose 10 mg/kg, route oral; settings: in vivo
[4] = Half life in Beagle dog at 3 mg/kg, iv; type: ADME, organism-based, Canis lupus familiaris; parameters: dose 3 mg/kg, route intravenous; settings: in vivo
[5] = Volume of distribution at steady state in Beagle dog at 3 mg/kg, iv; type: ADME, organism-based, Canis lupus familiaris; parameters: dose 3 mg/kg, route intravenous; settings: in vivo, read-out: Vdss
[6] = Clearance in Beagle dog at 3 mg/kg, iv; type: ADME, organism-based, Canis lupus familiaris; parameters: dose 3 mg/kg, route intravenous; settings: in vivo
[7] = AUC (infinity) in nude rat at 10 mg/kg, po; type: ADME, organism-based; parameters: time infinity, dose 10 mg/kg, route oral; settings: plasma
[8] = Cmax in nude rat at 10 mg/kg, po; type: ADME, organism-based; parameters: dose 10 mg/kg, route oral; settings: in vivo
[9] = Half life in nude rat at 3 mg/kg, iv; type: ADME, organism-based; parameters: dose 3 mg/kg, route intravenous; settings: in vivo
[10] = Volume of distribution at steady state in nude rat at 3 mg/kg, iv; type: ADME, organism-based; parameters: dose 3 mg/kg, route intravenous; settings: in vivo, read-out: Vdss
[11] = AUC (infinity) in nude rat at 3 mg/kg, iv; type: ADME, organism-based; parameters: time infinity, dose 3 mg/kg, route intravenous; settings: plasma
[12] = Cmax in nude rat at 3 mg/kg, iv; type: ADME, organism-based; parameters: dose 3 mg/kg, route intravenous; settings: in vivo
Mus musculus [13] = experiment: Toxicity in SCID mouse xenografted with BRAF-V600E/PTEN-deficient human UACC62 cells assessed as body weight loss at 150 mg/kg, po bid; type: organism-based, UACC-62; parameters: dose 150 mg/kg, route oral; settings: in vivo
UACC-62 = experiment: Antitumor activity against BRAF-V600E/PTEN-deficient human UACC62 cells xenografted in SCID mouse assessed as tumor growth inhibition at 150 mg/kg, po bid measured on day 15; type: functional
Plasma = experiment: Fraction unbound in SCID mouse plasma xenografted with BRAF-V600E/PTEN-deficient human UACC62 cells at 100 mg/kg, po; type: ADME, organism-based, UACC-62; parameters: dose 100 mg/kg, route oral; settings: in vivo
Mus musculus [14] = experiment: In vivo inhibition of PI3Kbeta in tumor of SCID mouse xenografted with BRAF-V600E/PTEN-deficient human UACC62 cells assessed as inhibition of Akt phosphorylation at S473 at 200 mg/kg, po up to 6 hrs; type: functional; settings: UACC-62, 6 h
[15] = Half life in nude rat at 10 mg/kg, po; type: ADME, organism-based; parameters: dose 10 mg/kg, route oral; settings: in vivo
Mus musculus [16] = experiment: Toxicity in SCID mouse xenografted with PTEN-deficient human PC3 cells assessed as body weight loss at 150 mg/kg, po bid; type: organism-based, PC-3; parameters: dose 150 mg/kg, route oral; settings: in vivo
Mus musculus [17] = experiment: In vivo inhibition of PI3Kbeta in tumor of po dosed SCID mouse xenografted with PTEN-deficient human PC3 cells assessed as inhibition of Akt phosphorylation at S473; type: functional, organism-based; settings: PC-3
[18] = Plasma concentration in SCID mouse xenografted with PTEN-deficient human PC3 cells at 100 mg/kg, po after 24 hrs; type: ADME, organism-based, PC-3; parameters: dose 100 mg/kg, route oral
[19] = Plasma concentration in SCID mouse xenografted with PTEN-deficient human PC3 cells at 100 mg/kg, po after 16 hrs; type: ADME, organism-based, PC-3; parameters: dose 100 mg/kg, route oral
[20] = Plasma concentration in SCID mouse xenografted with PTEN-deficient human PC3 cells at 100 mg/kg, po after 4 hrs; type: ADME, organism-based, PC-3; parameters: dose 100 mg/kg, route oral
[21] = Plasma concentration in SCID mouse xenografted with PTEN-deficient human PC3 cells at 100 mg/kg, po after 1 hr; type: ADME, organism-based, PC-3; parameters: dose 100 mg/kg, route oral
Mus musculus [22] = experiment: In vivo inhibition of PI3Kbeta in tumor of SCID mouse xenografted with PTEN-deficient human PC3 cells assessed as inhibition of Akt phosphorylation at S473 at 100 mg/kg, po up to 7 hrs; type: functional; settings: PC-3, 7 h
[23] = Oral bioavailability in Balb/c mouse plasma at 100 mg/kg by LC-MS/MS analysis; type: ADME, organism-based
[24] = Apparent terminal half life in Balb/c mouse plasma at 100 mg/kg, po by LC-MS/MS analysis; type: ADME, organism-based; parameters: dose 100 mg/kg, route oral; settings: read-out: betat1/2(app) (converted)
[25] = AUC (infinity) in Balb/c mouse plasma at 100 mg/kg, po by LC-MS/MS analysis; type: ADME, organism-based; parameters: time infinity, dose 100 mg/kg, route oral
[26] = Tmax in Balb/c mouse plasma at 100 mg/kg, po by LC-MS/MS analysis; type: ADME, organism-based; parameters: dose 100 mg/kg, route oral
[27] = Cmax in Balb/c mouse plasma at 100 mg/kg, po by LC-MS/MS analysis; type: ADME, organism-based; parameters: dose 100 mg/kg, route oral
[28] = Oral bioavailability in Balb/c mouse plasma at 10 mg/kg by LC-MS/MS analysis; type: ADME, organism-based
[29] = Tmax in Balb/c mouse plasma at 10 mg/kg, po by LC-MS/MS analysis; type: ADME, organism-based; parameters: dose 10 mg/kg, route oral
[30] = Cmax in Balb/c mouse plasma at 10 mg/kg, po after 15 to 30 mins by LC-MS/MS analysis; type: ADME, organism-based; parameters: dose 10 mg/kg, route oral
[31] = Apparent terminal half life in Balb/c mouse plasma at 3 mg/kg, iv by LC-MS/MS analysis; type: ADME, organism-based; parameters: dose 3 mg/kg, route intravenous; settings: read-out: betat1/2(app) (converted)
[32] = Volume of distribution at steady state in Balb/c mouse plasma at 3 mg/kg, iv by LC-MS/MS analysis; type: ADME, organism-based; parameters: dose 3 mg/kg, route intravenous; settings: read-out: Vdss
[33] = Clearance in Balb/c mouse plasma at 3 mg/kg, iv by LC-MS/MS analysis; type: ADME, organism-based; parameters: dose 3 mg/kg, route intravenous
[34] = AUC (infinity) in Balb/c mouse plasma at 3 mg/kg, iv by LC-MS/MS analysis; type: ADME, organism-based; parameters: time infinity, dose 3 mg/kg, route intravenous
[35] = Cmax in Balb/c mouse plasma at 3 mg/kg, iv by LC-MS/MS analysis; type: ADME, organism-based; parameters: dose 3 mg/kg, route intravenous
[36] = biological target: Phosphatidylinositol 3-kinase catalytic subunit type 3 (Homo sapiens, UniProt Q8NEB9); experiment: Inhibition of VPS34 (unknown origin)
Phosphatidylinositol 3-kinase catalytic subunit type 3, sequence (Q8NEB9 whole entry, the tested form may be a part): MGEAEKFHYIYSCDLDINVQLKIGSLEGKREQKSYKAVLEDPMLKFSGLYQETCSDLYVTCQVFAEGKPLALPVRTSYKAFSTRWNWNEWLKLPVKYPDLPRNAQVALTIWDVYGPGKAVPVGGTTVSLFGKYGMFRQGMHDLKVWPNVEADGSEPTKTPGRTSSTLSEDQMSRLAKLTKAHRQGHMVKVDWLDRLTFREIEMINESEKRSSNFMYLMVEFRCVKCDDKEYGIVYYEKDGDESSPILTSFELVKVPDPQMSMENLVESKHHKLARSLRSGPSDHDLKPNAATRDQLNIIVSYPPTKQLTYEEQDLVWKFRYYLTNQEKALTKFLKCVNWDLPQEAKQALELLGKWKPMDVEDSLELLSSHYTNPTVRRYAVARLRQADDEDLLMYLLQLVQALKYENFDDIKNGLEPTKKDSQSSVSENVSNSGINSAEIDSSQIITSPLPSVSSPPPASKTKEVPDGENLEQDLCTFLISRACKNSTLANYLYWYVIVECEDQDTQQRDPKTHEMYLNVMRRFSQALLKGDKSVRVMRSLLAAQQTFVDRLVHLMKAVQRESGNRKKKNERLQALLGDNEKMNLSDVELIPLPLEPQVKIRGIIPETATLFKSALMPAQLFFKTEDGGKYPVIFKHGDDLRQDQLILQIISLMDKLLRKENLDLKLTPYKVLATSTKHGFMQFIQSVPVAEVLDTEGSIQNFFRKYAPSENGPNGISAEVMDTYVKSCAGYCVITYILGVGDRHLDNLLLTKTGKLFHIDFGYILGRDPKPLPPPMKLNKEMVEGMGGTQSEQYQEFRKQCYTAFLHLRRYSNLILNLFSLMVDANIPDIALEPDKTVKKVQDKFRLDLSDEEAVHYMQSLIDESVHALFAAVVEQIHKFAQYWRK

[37] = biological target: Phosphatidylinositol 4-phosphate 3-kinase C2 domain-containing subunit beta (Homo sapiens, UniProt O00750); experiment: Inhibition of PI3KC2beta (unknown origin)
[38] = biological target: DNA-dependent protein kinase catalytic subunit (Homo sapiens, UniProt P78527); experiment: Inhibition of DNA-PK (unknown origin)
[39] = biological target: Serine/threonine-protein kinase mTOR (Homo sapiens, UniProt P42345); experiment: Inhibition of mTOR (unknown origin)
Cytochrome P450 3A4 = Cytochrome P450 3A4 (Homo sapiens, UniProt P08684); experiment: Inhibition of recombinant human CYP3A4
Cytochrome P450 3A4, sequence (P08684 whole entry): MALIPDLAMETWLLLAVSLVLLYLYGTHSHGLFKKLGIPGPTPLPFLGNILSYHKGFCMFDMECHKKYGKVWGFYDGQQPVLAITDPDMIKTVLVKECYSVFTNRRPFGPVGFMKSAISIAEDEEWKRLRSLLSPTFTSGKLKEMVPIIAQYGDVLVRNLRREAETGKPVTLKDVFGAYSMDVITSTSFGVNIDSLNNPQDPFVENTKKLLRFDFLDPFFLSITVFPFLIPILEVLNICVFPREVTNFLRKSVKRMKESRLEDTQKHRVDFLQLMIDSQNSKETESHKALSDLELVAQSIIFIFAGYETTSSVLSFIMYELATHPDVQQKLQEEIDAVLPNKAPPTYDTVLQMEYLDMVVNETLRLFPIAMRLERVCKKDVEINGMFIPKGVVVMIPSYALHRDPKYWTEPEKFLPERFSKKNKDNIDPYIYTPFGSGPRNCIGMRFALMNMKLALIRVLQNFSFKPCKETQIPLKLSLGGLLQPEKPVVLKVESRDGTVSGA

[40] = Metabolic stability in human liver microsomes at 5 uM after 20 mins; settings: liver microsomes
[41] = Metabolic stability in mouse liver microsomes at 5 uM after 20 mins; settings: liver microsomes
[42] = biological target: Phosphatidylinositol 4,5-bisphosphate 3-kinase catalytic subunit gamma isoform (Homo sapiens, UniProt P48736); experiment: Inhibition of C-terminal ploy-His-tagged human PI3Kgamma expressed in baculovirus-infected sf9 cells using PI(4,5)P2 as substrate after 15 mins by HTRF assay
Phosphatidylinositol 4,5-bisphosphate 3-kinase catalytic subunit gamma isoform, sequence (P48736 whole entry, canonical isoform): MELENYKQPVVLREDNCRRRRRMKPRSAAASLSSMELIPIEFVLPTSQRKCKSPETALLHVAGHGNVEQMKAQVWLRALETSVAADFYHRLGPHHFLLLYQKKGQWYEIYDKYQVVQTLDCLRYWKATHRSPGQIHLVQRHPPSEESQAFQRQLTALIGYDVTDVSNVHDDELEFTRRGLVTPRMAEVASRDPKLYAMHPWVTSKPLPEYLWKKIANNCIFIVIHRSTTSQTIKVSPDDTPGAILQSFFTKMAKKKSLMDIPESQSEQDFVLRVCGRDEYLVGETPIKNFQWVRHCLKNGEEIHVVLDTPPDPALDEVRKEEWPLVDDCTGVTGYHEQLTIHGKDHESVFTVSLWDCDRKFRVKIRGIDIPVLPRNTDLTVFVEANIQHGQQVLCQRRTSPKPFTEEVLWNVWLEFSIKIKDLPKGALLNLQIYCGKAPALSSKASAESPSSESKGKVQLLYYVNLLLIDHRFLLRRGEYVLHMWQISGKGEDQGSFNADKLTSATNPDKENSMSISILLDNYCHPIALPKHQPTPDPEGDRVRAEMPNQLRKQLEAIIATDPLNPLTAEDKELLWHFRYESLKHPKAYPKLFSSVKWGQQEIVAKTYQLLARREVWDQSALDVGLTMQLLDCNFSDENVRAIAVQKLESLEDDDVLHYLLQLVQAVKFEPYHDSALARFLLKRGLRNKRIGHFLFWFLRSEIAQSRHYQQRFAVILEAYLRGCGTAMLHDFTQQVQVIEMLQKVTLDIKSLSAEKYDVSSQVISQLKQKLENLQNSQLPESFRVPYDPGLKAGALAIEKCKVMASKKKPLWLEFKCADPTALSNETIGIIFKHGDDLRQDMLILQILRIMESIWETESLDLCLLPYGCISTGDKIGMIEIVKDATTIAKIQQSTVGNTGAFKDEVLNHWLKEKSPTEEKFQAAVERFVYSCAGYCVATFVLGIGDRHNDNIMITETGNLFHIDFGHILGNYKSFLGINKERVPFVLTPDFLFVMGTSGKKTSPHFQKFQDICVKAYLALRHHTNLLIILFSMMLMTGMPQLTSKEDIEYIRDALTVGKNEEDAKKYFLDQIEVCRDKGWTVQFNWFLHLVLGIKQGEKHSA

[43] = biological target: T1, Phosphatidylinositol 4,5-bisphosphate 3-kinase catalytic subunit beta isoform (Homo sapiens, UniProt P42338); experiment: Inhibition of N-terminal ploy-His-tagged human PI3Kbeta expressed in baculovirus-infected sf21 cells using PI(4,5)P2 as substrate after 15 mins by HTRF assay
Target sequence in this assay (P42338 whole entry, canonical isoform): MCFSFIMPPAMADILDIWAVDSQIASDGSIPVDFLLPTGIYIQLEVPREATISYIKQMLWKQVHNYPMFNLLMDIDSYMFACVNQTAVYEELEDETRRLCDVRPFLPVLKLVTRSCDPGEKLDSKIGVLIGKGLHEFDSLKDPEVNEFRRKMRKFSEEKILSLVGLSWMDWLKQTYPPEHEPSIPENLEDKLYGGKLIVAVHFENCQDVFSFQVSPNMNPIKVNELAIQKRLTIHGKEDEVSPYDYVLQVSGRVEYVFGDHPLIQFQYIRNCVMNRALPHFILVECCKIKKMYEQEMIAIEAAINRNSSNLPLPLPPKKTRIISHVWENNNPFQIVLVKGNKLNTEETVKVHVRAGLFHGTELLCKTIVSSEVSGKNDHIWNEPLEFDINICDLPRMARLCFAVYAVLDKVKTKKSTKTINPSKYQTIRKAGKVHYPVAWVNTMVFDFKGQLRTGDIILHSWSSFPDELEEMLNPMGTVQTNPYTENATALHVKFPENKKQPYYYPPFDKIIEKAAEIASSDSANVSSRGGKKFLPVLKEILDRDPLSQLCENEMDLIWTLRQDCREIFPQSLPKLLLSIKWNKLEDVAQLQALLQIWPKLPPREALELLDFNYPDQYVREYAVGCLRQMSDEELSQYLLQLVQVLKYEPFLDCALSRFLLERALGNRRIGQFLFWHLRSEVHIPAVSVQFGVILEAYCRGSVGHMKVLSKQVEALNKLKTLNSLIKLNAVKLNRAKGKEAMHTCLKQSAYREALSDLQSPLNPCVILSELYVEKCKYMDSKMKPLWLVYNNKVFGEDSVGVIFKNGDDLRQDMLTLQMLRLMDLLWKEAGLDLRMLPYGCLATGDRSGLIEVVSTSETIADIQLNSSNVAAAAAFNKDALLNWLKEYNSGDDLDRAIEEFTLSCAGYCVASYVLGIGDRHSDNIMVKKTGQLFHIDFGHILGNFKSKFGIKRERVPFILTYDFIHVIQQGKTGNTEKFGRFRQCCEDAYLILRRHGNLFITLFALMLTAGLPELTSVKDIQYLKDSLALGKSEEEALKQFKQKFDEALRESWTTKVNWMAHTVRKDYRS

[44] = biological target: T1, Phosphatidylinositol 4,5-bisphosphate 3-kinase catalytic subunit beta isoform; settings: UACC-62
Target sequence in this assay (P42338 whole entry, looked up, canonical isoform): as the sequence (P42338 whole entry, canonical isoform) above
Description: Inhibition of PI3Kbeta-mediated Akt phosphorylation at S473 in BRAF-V600E/PTEN-deficient human UACC62 cells

[45] = biological target: T1, Phosphatidylinositol 4,5-bisphosphate 3-kinase catalytic subunit beta isoform; settings: PC-3
Target sequence in this assay (P42338 whole entry, looked up, canonical isoform): as the sequence (P42338 whole entry, canonical isoform) above
Description: Inhibition of PI3Kbeta-mediated Akt phosphorylation at S473 in PTEN-deficient human PC3 cells after 0.5 to 2 hrs by Immunoblotting assay

C[C@H]1Cc2ccccc2N1C(=O)Cc1nc(N2CCOCC2)cc(=O)[nH]1 [SAR-260301]
Stability (Liver microsome): 5%
bioavailability [1]: 67%
Tmax [2]: 30 min
Cmax [3]: 4.77 µg/mL
half-life [4]: > 300 min
Vd [5]: > 3 L/kg
clearance [6]: 0.4 L/h/kg
AUC(0-inf) [7]: 2.41 µg·h/mL
Cmax [8]: 1.46 µg/mL
half-life [9]: 52.2 min
Vd [10]: 8.1 L/kg
AUC(0-inf) [11]: 0.864 µg·h/mL
Cmax [12]: 1.2 µg/mL
Activity (Mus musculus [13]): Non-toxic
T/C (UACC-62): 39%
Cp(f) (Plasma): 1.82 µM
inhibition in vivo at 200 mg/kg (Mus musculus [14]): > 50%
half-life [15]: 414 min
Activity (Mus musculus [16]): Non-toxic
pEC50 (Mus musculus [17]): 6.17
concentration at 24 h [18]: 0.076 µM
concentration at 16 h [19]: 0.026 µM
concentration at 4 h [20]: 14.2 µM
concentration at 1 h [21]: 24.9 µM
inhibition in vivo at 100 mg/kg (Mus musculus [22]): ≥ 50%
bioavailability [23]: 55%
half-life [24]: 150 min
AUC(0-inf) [25]: 11 µg·h/mL
Tmax [26]: 15 min
Cmax [27]: 8.96 µg/mL
bioavailability [28]: 30%
Tmax [29]: 15 min
Cmax [30]: 0.848 µg/mL
half-life [31]: 52.2 min
Vd [32]: 1 L/kg
clearance [33]: 5 L/h/kg
AUC(0-inf) [34]: 0.6 µg·h/mL
Cmax [35]: 1.87 µg/mL
pIC50 [36]: 6.74
pIC50 [37]: < 6.00
pIC50 [38]: 5.70
pIC50 [39]: < 5.00
pIC50 (Cytochrome P450 3A4): 4.40
remaining at 20 min, 5 µM [40]: 12%
remaining at 20 min, 5 µM [41]: 19%
pIC50 [42]: 5.00
pIC50 [43]: 7.64
IC90 [44]: 2 µM
IC90 [45]: 0.002 µM
